{"source": "patent US20130197085A1", "about": "“AGENT AND METHOD FOR STABILIZING MEMBRANE PROTEIN” (priority 2007, published 2013)", "key": {"[1]": {"target": "T1, wild-type BSEP (Homo sapiens, UniProt O95342, L339V)", "T1 construct": "expressed in transfected cells; host or cells: MDCKII cells infected with recombinant adenovirus", "T1 sequence (O95342 whole entry L339V)": "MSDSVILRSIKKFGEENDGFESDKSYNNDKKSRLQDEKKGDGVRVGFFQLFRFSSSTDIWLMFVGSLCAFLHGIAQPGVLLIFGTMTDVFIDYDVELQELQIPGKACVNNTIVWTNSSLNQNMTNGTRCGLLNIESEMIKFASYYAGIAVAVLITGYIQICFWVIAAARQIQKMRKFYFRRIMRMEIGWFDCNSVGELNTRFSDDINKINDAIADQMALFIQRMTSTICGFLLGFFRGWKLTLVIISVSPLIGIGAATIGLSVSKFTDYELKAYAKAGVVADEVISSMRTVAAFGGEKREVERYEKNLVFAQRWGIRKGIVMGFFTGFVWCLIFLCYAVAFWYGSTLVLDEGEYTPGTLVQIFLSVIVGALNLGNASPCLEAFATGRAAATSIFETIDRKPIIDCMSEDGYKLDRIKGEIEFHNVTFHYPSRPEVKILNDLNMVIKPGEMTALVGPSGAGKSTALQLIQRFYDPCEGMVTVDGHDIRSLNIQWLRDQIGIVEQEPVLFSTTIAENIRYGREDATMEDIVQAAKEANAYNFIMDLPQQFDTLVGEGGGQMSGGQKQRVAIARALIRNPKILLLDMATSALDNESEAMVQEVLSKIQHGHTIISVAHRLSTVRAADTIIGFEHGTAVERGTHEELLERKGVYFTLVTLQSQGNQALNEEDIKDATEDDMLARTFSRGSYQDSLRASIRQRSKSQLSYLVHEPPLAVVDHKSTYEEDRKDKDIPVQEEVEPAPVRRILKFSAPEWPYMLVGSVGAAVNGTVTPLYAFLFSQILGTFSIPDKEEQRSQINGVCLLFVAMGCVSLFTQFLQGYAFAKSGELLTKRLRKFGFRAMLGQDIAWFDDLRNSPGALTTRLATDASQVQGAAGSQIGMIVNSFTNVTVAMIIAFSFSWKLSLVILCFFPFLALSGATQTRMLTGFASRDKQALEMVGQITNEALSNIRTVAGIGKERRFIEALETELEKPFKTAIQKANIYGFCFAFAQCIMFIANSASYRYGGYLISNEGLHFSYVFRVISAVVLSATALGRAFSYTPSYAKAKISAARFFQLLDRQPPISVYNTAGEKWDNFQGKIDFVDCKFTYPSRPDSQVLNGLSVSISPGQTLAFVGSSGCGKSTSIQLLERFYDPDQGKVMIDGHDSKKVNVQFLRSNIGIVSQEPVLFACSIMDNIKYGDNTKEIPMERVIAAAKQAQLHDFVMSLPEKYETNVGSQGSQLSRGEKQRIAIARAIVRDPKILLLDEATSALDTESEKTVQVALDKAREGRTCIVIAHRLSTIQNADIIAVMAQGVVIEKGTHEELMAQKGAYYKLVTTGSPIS", "assay": "Transcellular transport assay of [^3H] TC across MDCKII monolayer", "format": "cell-based", "conditions": "24 hours", "procedure": "MDCKII cells were dispersed on a Transwell membrane insert (pore size: […]; Falcon) of a 24-well plate, resulting in a density of 1.5×10^5 cells/insert. Two days after the culture, the confluent cells were infected with recombinant adenoviruses having the cDNAs of wild-type, E297G and D482G BSEPs, and GFP, at 50 MOI. […] After completion of the treatment for 24 hours, a transcellular transport assay was carried out (see Mita et al., Am J Physiol Gastrointest Liver Physiol 290: G550-G556, 2006).\nThe apparent efflux clearance across the apical membrane (PSapical) was calculated by dividing a steady rate of the transcellular transport of [^3H] TC for 2 hours by the intracellular concentration of the [^3H] TC at the termination of the experiment (2 hours later)."}, "[2]": {"target": "T2, D482G BSEP (Homo sapiens, UniProt O95342, D482G/L339V)", "T2 construct": "expressed in transfected cells; host or cells: MDCKII cells infected with recombinant adenovirus", "T2 sequence (O95342 whole entry L339V/D482G)": "as the sequence (O95342 whole entry L339V) above, with D482G counted along it", "assay": "Cell surface biotinylation method, expression on the surface of MDCKII cells", "format": "cell-based", "conditions": "1 mM, 24 hours", "procedure": "(§1) MDCKII cells were dispersed on a 6-well plate, resulting in a density of 2.5×10^5 cells/well. After completion of the culture for 24 hours, the confluent cells were infected with recombinant adenoviruses having the cDNAs of wild-type, E297G and D482G BSEPs, and GFP, at 200 MOI. After completion of the infection, the cells were cultured for 24 hours. […] After completion of the treatment for 24 hours, the cells were biotinylated (see Hayashi et al., Hepatology, 41: 916-924, 2005)."}, "[3]": {"target": "T3, E297G BSEP (Homo sapiens, UniProt O95342, E297G/L339V)", "T3 construct": "expressed in transfected cells; host or cells: MDCKII cells infected with recombinant adenovirus", "T3 sequence (O95342 whole entry E297G/L339V)": "as the sequence (O95342 whole entry L339V) above, with E297G counted along it", "assay": "Cell surface biotinylation method, expression on the surface of MDCKII cells", "format": "cell-based", "conditions": "1 mM, 24 hours", "procedure": "as §1"}, "[4]": {"system": "intrinsic dipeptidyl peptidase IV (DPPIV)", "assay": "Cell surface biotinylation method, expression on the surface of MDCKII cells", "format": "cell-based", "conditions": "1 mM, 24 hours", "procedure": "as §1"}, "[5]": {"target": "T1, wild-type BSEP", "assay": "Cell surface biotinylation method, expression on the surface of MDCKII cells", "format": "cell-based", "conditions": "1 mM, 24 hours", "procedure": "as §1"}, "[6]": {"system": "extrinsic P-gp", "assay": "Cell surface biotinylation method, expression on the surface of MDCKII cells", "format": "cell-based", "conditions": "1 mM, 24 hours"}, "[7]": {"system": "extrinsic P-gp", "assay": "Decomposition rate of cell surface-expressed protein (biotin-labeling) in MDCKII cells", "format": "cell-based", "conditions": "1 mM 4PBA"}, "[8]": {"target": "T4, BSEP (Rattus norvegicus, UniProt O70127)", "T4 construct": "from tissue; host or cells: liver of male SD rats: in vivo for A27, canalicular membrane vesicles for A28 and A29", "T4 sequence (O70127 1-1321)": "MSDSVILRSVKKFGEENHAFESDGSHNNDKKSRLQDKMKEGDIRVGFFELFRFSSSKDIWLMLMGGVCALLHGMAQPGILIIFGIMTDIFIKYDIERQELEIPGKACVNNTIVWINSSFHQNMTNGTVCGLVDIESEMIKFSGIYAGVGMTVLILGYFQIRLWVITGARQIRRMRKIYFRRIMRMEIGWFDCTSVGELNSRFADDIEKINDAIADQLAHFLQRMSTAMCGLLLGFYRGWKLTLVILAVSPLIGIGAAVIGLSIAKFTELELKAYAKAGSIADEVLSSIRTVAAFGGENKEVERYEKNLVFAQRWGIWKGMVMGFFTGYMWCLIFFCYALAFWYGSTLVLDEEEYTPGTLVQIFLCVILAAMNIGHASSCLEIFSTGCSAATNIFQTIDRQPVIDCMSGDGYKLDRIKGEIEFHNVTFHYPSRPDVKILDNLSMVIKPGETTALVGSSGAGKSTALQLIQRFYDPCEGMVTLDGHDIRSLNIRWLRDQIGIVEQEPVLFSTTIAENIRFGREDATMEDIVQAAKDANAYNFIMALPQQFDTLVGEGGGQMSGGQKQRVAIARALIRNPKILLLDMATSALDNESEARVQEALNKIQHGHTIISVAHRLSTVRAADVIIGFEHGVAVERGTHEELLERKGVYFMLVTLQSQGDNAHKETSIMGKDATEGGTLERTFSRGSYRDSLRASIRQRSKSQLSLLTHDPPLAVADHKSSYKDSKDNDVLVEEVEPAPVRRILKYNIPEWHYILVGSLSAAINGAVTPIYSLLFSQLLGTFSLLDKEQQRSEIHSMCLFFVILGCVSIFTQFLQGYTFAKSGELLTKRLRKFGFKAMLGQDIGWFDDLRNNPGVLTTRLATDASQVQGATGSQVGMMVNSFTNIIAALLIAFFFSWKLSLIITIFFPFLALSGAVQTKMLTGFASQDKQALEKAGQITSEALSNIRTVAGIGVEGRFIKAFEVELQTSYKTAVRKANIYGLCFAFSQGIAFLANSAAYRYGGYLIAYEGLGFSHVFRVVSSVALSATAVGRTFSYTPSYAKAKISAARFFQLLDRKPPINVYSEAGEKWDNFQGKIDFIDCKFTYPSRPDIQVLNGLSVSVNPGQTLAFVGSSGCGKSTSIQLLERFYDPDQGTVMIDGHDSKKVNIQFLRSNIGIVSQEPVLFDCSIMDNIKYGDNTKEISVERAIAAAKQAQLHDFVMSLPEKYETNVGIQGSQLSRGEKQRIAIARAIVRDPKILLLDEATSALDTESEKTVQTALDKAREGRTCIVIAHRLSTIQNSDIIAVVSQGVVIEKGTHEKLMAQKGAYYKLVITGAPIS", "assay": "Western blotting of canalicular membrane vesicles (CMVs) from treated rats", "format": "in vivo, SD rat", "conditions": "CMVs from SD rats treated at 0.6 g/kg/day for 10 days", "procedure": "(§2) […] 4PBA or a vehicle was given to a male SD rat (6- to 7-week-old) for 10 days, divided over 3 administrations. Canalicular membrane vesicles were prepared from the liver of the rat (Akita et al., Biochim Biophys Acta, 1511: 7-16, 2001), and they were then used in Western blotting and a transport assay. Such transport assay was carried out by a rapid filtration method (Hayashi et al., Biochim Biophys Acta, 1738: 54-62, 2005)."}, "[9]": {"system": "DPPIV", "assay": "Western blotting of canalicular membrane vesicles (CMVs) from treated rats", "format": "in vivo, SD rat", "conditions": "CMVs from SD rats treated at 0.6 g/kg/day for 10 days", "procedure": "as §2"}, "[10]": {"system": "P-gp", "assay": "Western blotting of canalicular membrane vesicles (CMVs) from treated rats", "format": "in vivo, SD rat", "conditions": "CMVs from SD rats treated at 0.6 g/kg/day for 10 days", "procedure": "as §2"}}, "data": [{"smiles": "O=C(O)CCCc1ccccc1", "note": "[4PBA, 4-phenylbutyric acid]", "values": [{"measurement": "efflux of [^3H] TC from the apical side to the base side", "setting": "[1]; 1 mM, MDCKII monolayer", "result": "did not influence"}, {"measurement": "efflux of [^3H] TC from the base side to the apical side, increase", "setting": "[1]; 1 mM, MDCKII monolayer", "result": 1.5, "unit": "times"}, {"measurement": "BSEP-dependent PSapical value (PSapical, BSEP), increase", "setting": "[1]; 1 mM, PSapical minus PSapical of GFP cells", "result": 1.7, "unit": "times"}, {"measurement": "PSapical value", "setting": "[1]; 4PBA treatment 1 mM", "result": "increased"}, {"measurement": "expression level on the cell surface, increase", "setting": "[2]", "result": 2.6, "unit": "times"}, {"measurement": "expression level on the cell surface, increase", "setting": "[3]", "result": 3.1, "unit": "times"}, {"measurement": "expression of intrinsic DPPIV", "setting": "[4]", "result": "not influenced"}, {"measurement": "expression level on the cell surface, increase", "setting": "[5]", "result": 1.8, "unit": "times"}, {"measurement": "expression of extrinsic P-gp", "setting": "[6]", "result": "not influenced"}, {"measurement": "decomposition of extrinsic P-gp on the cell surface", "setting": "[7]", "result": "not influenced"}, {"measurement": "expression level of BSEP in CMVs, increase", "setting": "[8]", "result": 3.2, "unit": "times"}, {"measurement": "expression level of DPPIV in CMVs", "setting": "[9]", "result": "not changed"}, {"measurement": "expression level of P-gp in CMVs", "setting": "[10]", "result": "not changed"}]}]}
